Laboratory results as given in ChEMBL document CHEMBL4431353, “Optimization of a Series of Bivalent Triazolopyridazine Based Bromodomain and Extraterminal Inhibitors: The Discovery of (3R)-4-[2-[4-[1-(3-Methoxy-[1,2,4]triazolo[4,3-b]pyridazin-6-yl)-4-piperidyl]phenoxy]ethyl]-1,3-dimethyl-piperazin-2-one (AZD5153)” (J Med Chem, 2016).
Values after ≈ are worked out from the molar mass of the structure shown.

Tests used:
[1] = target: T1, Bromodomain-containing protein 4 (Homo sapiens, UniProt O60885); assay: Displacement of Alexa647-labeled JQ1 derivative from wild type BRD4 tandem domain (44 to 460 residues) (unknown origin) incubated for 1 hr by fluorescence polarization assay
[2] = target: T1, Bromodomain-containing protein 4; assay: Inhibition of BRD4 in human LNCAP cells assessed as down regulation of nuclear AR level by immunofluorescence assay; assay type: cell-based
[3] = target: T1, Bromodomain-containing protein 4; assay: Inhibition of BRD4 in human MCF7 cells assessed as down regulation of ERalpha after 18 to 24 hrs by Hoechst staining based cellomics arrayscan analysis; assay type: cell-based
[4] = target: T1, Bromodomain-containing protein 4; assay: Inhibition of BRD4 in human MM1S cells assessed as down regulation of c-Myc incubated for 16 hrs by flow cytometry; assay type: cell-based
MM1.S = assay: Growth inhibition of human MM1S cells after 72 hrs by alamar blue assay; assay type: functional
[5] = Lipophilicity, log D of compound at pH 7.4; assay type: physicochemical; conditions: buffer
[6] = Thermodynamic solubility of compound in pH 7.4 solution; assay type: physicochemical; conditions: buffer, read-out: Therm_solubility
[7] = Intrinsic clearance in human hepatocytes assessed per million cells; assay type: ADME, cell-based, Hepatocyte; conditions: read-out: CLH
[8] = Unbound fraction in rat plasma; assay type: ADME, cell-free
[9] = Unbound fraction in dog plasma; assay type: ADME, cell-free, Canis lupus familiaris
[10] = Unbound fraction in human plasma; assay type: ADME, cell-free
[11] = Intrinsic clearance in dog hepatocytes assessed per million cells; assay type: ADME, cell-based, Canis lupus familiaris, Hepatocyte; conditions: read-out: CLH
[12] = Intrinsic clearance in rat hepatocytes assessed per million cells; assay type: ADME, cell-based, Hepatocyte; conditions: read-out: CLH
[13] = Plasma clearance in rat; assay type: ADME
[14] = Volume of distribution at steady state in rat; assay type: ADME; conditions: in vivo, read-out: Vdss
[15] = Oral bioavailability in rat; assay type: ADME, organism-based; conditions: in vivo
[16] = target: Bromodomain-containing protein 4 (Homo sapiens, UniProt O60885, N140A)
[17] = target: Bromodomain-containing protein 4 (Homo sapiens, UniProt O60885, N433A)
[18] = Dissociation constant, basic pKa of compound; assay type: physicochemical
[19] = Apparent permeability from apical to basolateral side in human Caco2 cells; assay type: ADME, cell-based; conditions: Caco-2
[20] = Plasma clearance in dog; assay type: ADME, Canis lupus familiaris
[21] = Volume of distribution at steady state in dog; assay type: ADME, Canis lupus familiaris; conditions: in vivo, read-out: Vdss
[22] = Oral bioavailability in dog; assay type: ADME, organism-based, Canis lupus familiaris; conditions: in vivo

| Ki [1] [µM] | IC50 [2] [µM] | IC50 [3] [µM] | IC50 [4] [µM] | GI50 (MM1.S) [µM] | logD [5] | solubility thermodynamic [6] [µM] | hepatocyte CLint [7] [µL/min/1e6 cells] | Ki [16] [µM] | Ki [17] [µM] | SMILES | other results |
| --- | --- | --- | --- | --- | --- | --- | --- | --- | --- | --- | --- |
| 2.51 |  | 1 |  |  | 3.1 | 52 (≈ 26.2 µg/mL) | 26 | 7.94 | 0.398 | CN1CCN(CCOc2ccc(C3CCN(c4ccc5nnc(C(F)(F)F)n5n4)CC3)cc2)C(=O)C1 |  |
| 0.0631 |  | 0.794 |  |  | 1.7 | 870 (≈ 427 µg/mL) | < 1.2 | 0.398 | 0.2 | COc1nnc2ccc(N3CCC(c4ccc(N5CC(N6CCN(C)C(=O)[C@H]6C)C5)cc4)CC3)nn12 |  |
| 0.0501 |  | 0.158 |  |  | 2 | 760 (≈ 394 µg/mL) | 2.7 | 0.316 | 0.158 | COc1nnc2ccc(N3CCC(c4ccc(N5CCC(N6CCN(C)C(=O)[C@H]6C)CC5)cc4)CC3)nn12 |  |
| 0.00794 | 0.0398 | 0.0251 | 0.01 | 0.00501 | 3.3 to 4.2 | 63 (≈ 32.6 µg/mL) | 70 | 0.0631 | 0.398 | C[C@@H]1C(=O)N(C)CCN1CCOc1ccc(C2CCN(c3ccc4nnc(C(F)(F)F)n4n3)CC2)cc1 |  |
| 0.126 |  | 0.316 | 0.0794 |  | 2.2 | 900 (≈ 432 µg/mL) | < 1.4 | 1 | 0.251 | COc1nnc2ccc(N3CCC(c4ccc(OCCN5CCN(C)C(=O)[C@@H]5C)cc4)CC3)nn12 |  |
| 0.01 |  | 0.00398 | < 0.002 | 0.00159 | 1.7 | 460 to 1000 (≈ 232 to 505 µg/mL) | 4 to 4.1 | 0.1 | 0.158 | COc1nnc2ccc(N3CCC(c4ccc(N5CC(CN6CCN(C)C(=O)[C@H]6C)C5)cc4)CC3)nn12 | pKa [18]: 5.9; Papp A→B [19]: 460 nm/s; fraction unbound [8]: 0.05; fraction unbound [9]: 0.27; fraction unbound [10]: 0.32; hepatocyte CLint [11]: 3 µL/min/1e6 cells; hepatocyte CLint [12]: < 1 µL/min/1e6 cells; clearance [13]: 0.42 L/h/kg; Vd [14]: 1.61 L/kg; bioavailability [15]: 57%; clearance [20]: 0.3 L/h/kg; Vd [21]: 0.7 L/kg; bioavailability [22]: 73% |
| > 1 | 1.58 | > 3.16 | 1.26 |  | 1.9 | 1000 (≈ 450 µg/mL) | 180 | 2.51 | 6.31 | C[C@@H]1C(=O)N(C)CCN1CCOc1ccc(C2CCN(c3ccc4nncn4n3)CC2)cc1 |  |

Further lines, the molecule ahead of its results:

| SMILES | Ki [1] [µM] | IC50 [2] [µM] | IC50 [3] [µM] | IC50 [4] [µM] | GI50 (MM1.S) [µM] | logD [5] | solubility thermodynamic [6] [µM] | hepatocyte CLint [7] [µL/min/1e6 cells] | Ki [16] [µM] | Ki [17] [µM] | other results |
| --- | --- | --- | --- | --- | --- | --- | --- | --- | --- | --- | --- |
| C[C@@H]1C(=O)N(C)CCN1CCOc1ccc(C2CCN(c3ccc4nnc(N(C)C)n4n3)CC2)cc1 | 0.0126 | 0.0251 | 0.0631 | 0.0158 | 0.00316 | 2.4 | 1600 to 1680 (≈ 788 to 828 µg/mL) | 4 to 4.4 | 0.316 | 0.316 | fraction unbound [8]: 0.04; fraction unbound [9]: 0.09; fraction unbound [10]: 0.16; hepatocyte CLint [11]: 18 µL/min/1e6 cells; hepatocyte CLint [12]: 13 µL/min/1e6 cells; clearance [13]: 0.36 L/h/kg; Vd [14]: 0.4 L/kg; bioavailability [15]: 42% |
| COc1nnc2ccc(N3CCC(c4ccc(OCCCN5CCN(C)C(=O)[C@H]5C)cc4)CC3)nn12 | 0.00398 |  | 0.02 | 0.00316 | < 0.00159 | 2.4 | > 1000 | 5.1 | 0.0631 | 0.0794 |  |
| COc1nnc2ccc(N3CCC(c4ccc(OCCN5C[C@@H](C)N(C(C)=O)[C@@H](C)C5)cc4)CC3)nn12 | 0.00501 |  | 0.0398 |  |  | 3.4 | 280 (≈ 142 µg/mL) | 48 | 0.158 | 0.0501 |  |
| Cc1nnc2ccc(N3CCC(c4ccc(OCCN5CCN(C)C(=O)[C@H]5C)cc4)CC3)nn12 | 0.0158 |  | 0.0398 | 0.0251 | 0.00501 | 2.4 | 670 (≈ 311 µg/mL) | 7.2 | 0.2 | 0.251 |  |
| C[C@@H]1C(=O)N(C)CCN1CCOc1ccc(C2CCN(c3ccc4nnc(Cl)n4n3)CC2)cc1 | 0.0126 | 0.0251 | 0.0398 | 0.0794 | 0.0199 | 3.1 | 63 (≈ 30.5 µg/mL) | 24 | 0.316 | 0.2 |  |
| COc1nnc2ccc(N3CCC(c4ccc(OCCN5[C@H](C)CN(C)C(=O)[C@H]5C)cc4)CC3)nn12 | 0.00794 |  | 0.02 | 0.0126 | 0.00631 | 2.3 | 750 (≈ 370 µg/mL) | 80 | 0.251 | 0.126 |  |
| CSc1nnc2ccc(N3CCC(c4ccc(OCCN5CCN(C)C(=O)[C@H]5C)cc4)CC3)nn12 | 0.0126 | 0.0251 | 0.0316 | 0.02 |  | 2.9 | 660 (≈ 327 µg/mL) | 21 | 0.126 | 0.158 |  |
| CN1CCN(CCOc2ccc(C3CCN(c4ccc5nnc(C(F)(F)F)n5n4)CC3)cc2)CC1=O | 0.2 | 0.316 | 0.501 |  |  | 3 | 65 (≈ 32.7 µg/mL) | 18 | 1 | 0.316 |  |
| COc1nnc2ccc(N3CCC(c4ccc(CCN5CCN(C)C(=O)[C@H]5C)cc4)CC3)nn12 | 0.00316 |  | 0.0251 | 0.01 | 0.00501 | 2.5 | 280 to 570 (≈ 130 to 264 µg/mL) | 2 to 2.2 | 0.126 | 0.1 | pKa [18]: 6.3; Papp A→B [19]: 280 nm/s; fraction unbound [8]: 0.02; fraction unbound [9]: 0.24; fraction unbound [10]: 0.25; hepatocyte CLint [11]: < 1 µL/min/1e6 cells; hepatocyte CLint [12]: < 1 µL/min/1e6 cells; clearance [13]: 0.18 L/h/kg; Vd [14]: 0.7 L/kg; bioavailability [15]: 72%; clearance [20]: 0.18 L/h/kg; Vd [21]: 0.9 L/kg; bioavailability [22]: 98% |
| COc1nnc2ccc(N3CCC(c4ccc(OCCN5[C@H](C)CN(C(C)=O)C[C@@H]5C)cc4)CC3)nn12 | 0.00158 |  | 0.00158 | < 0.002 | < 0.002 | 2.5 | > 1000 | 12 | 0.0158 | 0.0501 | pKa [18]: 6.2; Papp A→B [19]: 300 nm/s; fraction unbound [8]: 0.06; fraction unbound [9]: 0.16; fraction unbound [10]: 0.19; hepatocyte CLint [11]: 7 µL/min/1e6 cells; hepatocyte CLint [12]: 13 µL/min/1e6 cells; clearance [13]: 1.02 L/h/kg; Vd [14]: 1.5 L/kg; bioavailability [15]: 40%; clearance [20]: 0.66 L/h/kg; Vd [21]: 0.6 L/kg; bioavailability [22]: 28% |
| COc1nnc2ccc(N3CCC(c4ccc(OCCCCN5CCN(C)C(=O)[C@H]5C)cc4)CC3)nn12 | 0.00631 |  | 0.02 |  |  | 2.8 | 470 (≈ 239 µg/mL) | 12 | 0.1 | 0.0631 |  |
